Measurements published in ChEMBL document CHEMBL4680187, “Optimization of EphA2 antagonists based on a lithocholic acid core led to the identification of UniPR505, a new 3α-carbamoyloxy derivative with antiangiogenetic properties” (Eur J Med Chem, 2020).
Active and inactive are the calls of the source. The calls are words filed in the database; no cut-off is given here.

Tests used:
Ephrin type-A receptor 2 = Ephrin type-A receptor 2 (Mus musculus, UniProt Q03145); assay: Displacement of biotinylated ephrin-A1-Fc from recombinant mouse c-terminal His6-tagged EphA2 Fc (Ala22 to Ala535 residues) preincubated for 1 hr followed by ephrin-A1-FC addition and measured after 4 hrs by ELISA
Ephrin type-A receptor 2, sequence (Q03145 whole entry): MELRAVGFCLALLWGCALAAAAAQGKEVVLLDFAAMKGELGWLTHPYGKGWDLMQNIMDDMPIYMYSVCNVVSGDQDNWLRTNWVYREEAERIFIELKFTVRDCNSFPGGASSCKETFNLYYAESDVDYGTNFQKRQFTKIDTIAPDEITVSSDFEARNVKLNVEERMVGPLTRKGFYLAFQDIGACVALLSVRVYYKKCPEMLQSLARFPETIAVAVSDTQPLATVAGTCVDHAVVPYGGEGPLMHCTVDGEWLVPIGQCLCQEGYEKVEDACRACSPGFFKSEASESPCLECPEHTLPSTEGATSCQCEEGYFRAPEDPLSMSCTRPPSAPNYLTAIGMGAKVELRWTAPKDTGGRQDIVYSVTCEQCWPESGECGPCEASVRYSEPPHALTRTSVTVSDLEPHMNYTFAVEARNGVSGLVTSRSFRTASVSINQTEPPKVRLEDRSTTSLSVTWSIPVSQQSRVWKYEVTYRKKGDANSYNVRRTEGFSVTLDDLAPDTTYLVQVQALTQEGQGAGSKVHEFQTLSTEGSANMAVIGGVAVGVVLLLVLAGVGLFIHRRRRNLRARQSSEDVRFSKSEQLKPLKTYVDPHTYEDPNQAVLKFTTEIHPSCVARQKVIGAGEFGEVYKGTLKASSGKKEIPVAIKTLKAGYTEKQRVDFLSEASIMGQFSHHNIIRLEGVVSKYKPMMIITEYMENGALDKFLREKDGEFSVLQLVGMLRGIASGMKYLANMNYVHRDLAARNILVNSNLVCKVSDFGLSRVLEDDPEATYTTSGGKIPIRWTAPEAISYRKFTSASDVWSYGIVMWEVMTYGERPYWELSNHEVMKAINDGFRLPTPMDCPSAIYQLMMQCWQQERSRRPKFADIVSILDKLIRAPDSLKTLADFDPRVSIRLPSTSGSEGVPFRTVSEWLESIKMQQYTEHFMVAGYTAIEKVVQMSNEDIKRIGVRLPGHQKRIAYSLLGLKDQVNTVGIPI

PC-3 = assay: Cytotoxicity against human PC3 cells after 2 hrs by LDH assay; assay type: cell-based; conditions: pc-3, 2 h
Chorioallantoic membrane = assay: Antiangiogenic activity in Leghorn chicken fertilized egg chorioallantoic membrane assessed as reduction in unstimulated neovascularization at 10 uM measured after 3 days by CAM assay; assay type: functional, tissue-based; conditions: Gallus gallus, time 3.0 day

SMILES	IC50 (Ephrin type-A receptor 2) [µM]	Activity (PC-3)	Activity (Chorioallantoic membrane)
CCCCCCCCNC(=O)O[C@@H]1CC[C@@]2(C)[C@H](CC[C@@H]3[C@@H]2CC[C@]2(C)[C@@H]([C@H](C)CCC(=O)O)CC[C@@H]32)C1	4.5		
C[C@H](CCC(=O)O)[C@H]1CC[C@H]2[C@@H]3CC[C@@H]4C[C@H](OC(=O)Nc5ccccc5)CC[C@]4(C)[C@H]3CC[C@]12C	38		
CC(C)NC(=O)O[C@@H]1CC[C@@]2(C)[C@H](CC[C@@H]3[C@@H]2CC[C@]2(C)[C@@H]([C@H](C)CCC(=O)O)CC[C@@H]32)C1	12		
C[C@H](CCC(=O)N[C@H](CC(=O)O)Cc1c[nH]c2ccccc12)[C@H]1CC[C@H]2[C@@H]3CC[C@@H]4C[C@@H](OC(N)=O)CC[C@]4(C)[C@H]3CC[C@]12C	5.2		
CCNC(=O)O[C@@H]1CC[C@@]2(C)[C@H](CC[C@@H]3[C@@H]2CC[C@]2(C)[C@@H]([C@H](C)CCC(=O)O)CC[C@@H]32)C1	30		
C[C@H](CCC(=O)O)[C@H]1CC[C@H]2[C@@H]3CC[C@@H]4C[C@H](OC(N)=O)CC[C@]4(C)[C@H]3CC[C@]12C	17		
C[C@H](CCC(=O)N[C@H](CC(=O)O)Cc1c[nH]c2ccccc12)[C@H]1CC[C@H]2[C@@H]3CC[C@@H]4C[C@H](OC(=O)NC5CCCCC5)CC[C@]4(C)[C@H]3CC[C@]12C	1.2	Non-Toxic	
CC(C)NC(=O)O[C@@H]1CC[C@@]2(C)[C@H](CC[C@@H]3[C@@H]2CC[C@]2(C)[C@@H]([C@H](C)CCC(=O)N[C@H](CC(=O)O)Cc4c[nH]c5ccccc45)CC[C@@H]32)C1	7.1		
C[C@H](CCC(=O)O)[C@H]1CC[C@H]2[C@@H]3CC[C@@H]4C[C@H](OC(=O)NC5CCCCC5)CC[C@]4(C)[C@H]3CC[C@]12C	2.7		
C[C@H](CCC(=O)O)[C@H]1CC[C@H]2[C@@H]3CC[C@@H]4C[C@@H](OC(N)=O)CC[C@]4(C)[C@H]3CC[C@]12C	9.1		

The remaining molecules from weak to strong by IC50 (Ephrin type-A receptor 2), led by results:

IC50 (Ephrin type-A receptor 2) [µM]	SMILES	Activity (PC-3)	Activity (Chorioallantoic membrane)
15	CCCCCCCCNC(=O)O[C@@H]1CC[C@@]2(C)[C@H](CC[C@@H]3[C@@H]2CC[C@]2(C)[C@@H]([C@H](C)CCC(=O)N[C@H](CC(=O)O)Cc4c[nH]c5ccccc45)CC[C@@H]32)C1		
5.5	C[C@H](CCC(=O)N[C@H](CC(=O)O)Cc1c[nH]c2ccccc12)[C@H]1CC[C@H]2[C@@H]3CC[C@@H]4C[C@H](OC(=O)Nc5ccccc5)CC[C@]4(C)[C@H]3CC[C@]12C		
3.7	CCCCNC(=O)O[C@@H]1CC[C@@]2(C)[C@H](CC[C@@H]3[C@@H]2CC[C@]2(C)[C@@H]([C@H](C)CCC(=O)O)CC[C@@H]32)C1		
3.3	CCCCCCNC(=O)O[C@@H]1CC[C@@]2(C)[C@H](CC[C@@H]3[C@@H]2CC[C@]2(C)[C@@H]([C@H](C)CCC(=O)O)CC[C@@H]32)C1		
1.5	CCCCCCNC(=O)O[C@@H]1CC[C@@]2(C)[C@H](CC[C@@H]3[C@@H]2CC[C@]2(C)[C@@H]([C@H](C)CCC(=O)N[C@H](CC(=O)O)Cc4c[nH]c5ccccc45)CC[C@@H]32)C1	Non-Toxic	
1.2	C[C@H](CCC(=O)N[C@H](CC(=O)O)Cc1c[nH]c2ccccc12)[C@H]1CC[C@H]2[C@@H]3CC[C@@H]4C[C@H](OC(N)=O)CC[C@]4(C)[C@H]3CC[C@]12C	Non-Toxic	inactive
1.1	CCCCNC(=O)O[C@@H]1CC[C@@]2(C)[C@H](CC[C@@H]3[C@@H]2CC[C@]2(C)[C@@H]([C@H](C)CCC(=O)N[C@H](CC(=O)O)Cc4c[nH]c5ccccc45)CC[C@@H]32)C1	Non-Toxic	
